# Laboratory results from patent US20180312473A1, “PHENAZINE DERIVATIVES AS ANTIMICROBIAL AGENTS” (priority 2015, published 2018).
# Like-named read-outs stand apart in the source and are kept apart here. Marks after values point to notes of the source that are not given here.
# Legend:
# [1] = tested on: E. faecium 700221 (VRE); assay: MIC assay with Tiron or metal(II) cation co-treatment; type: cell-based, Enterococcus faecium
# [2] = tested on: Staphylococcus epidermidis (ATCC 35984), MRSE; assay: MIC assay (broth microdilution, CLSI); type: cell-based; conditions: for MIC: Staphylococcus epidermidis
# [3] = tested on: MRSA BAA-1707; assay: MIC assay (broth microdilution, CLSI); conditions: Staphylococcus aureus, read-out: MIC, MRSA BAA-1707
# [4] = tested on: VRE (E. faecium ATCC 700221) planktonic cells and biofilms; assay: Calgary Biofilm Device (CBD) assay, MBC/MBEC; type: cell-based, Enterococcus faecium; conditions: for MBC: Enterococcus
# [5] = in vitro; type: cell-based; conditions: human
# [6] = tested on: HeLa cells; assay: in vitro; type: cell-based; conditions: human, 24 h
# [7] = Mouse toxicity evaluation; type: in vivo, C57BL/6 mice; conditions: once daily oral gavage in corn oil, 7 days; 202 22.1 mg/kg, 209 4.2 mg/kg
# Method: Groups of five C57BL/6 mice (Charles River Laboratories International, Inc.; mice were eight weeks old) were treated once daily with HPs 202 (22.1 mg/kg) and 209 (4.2 mg/kg) for 7 days via oral gavage (0.25 mL of formulated corn oil for 25 gram mouse on average).
# [8] = tested on: MRSA-1 (methicillin-resistant Staphylococcus aureus clinical isolate); assay: MIC assay (broth microdilution, CLSI); type: cell-based; conditions: Staphylococcus aureus, MRSA, read-out: MIC, MRSA-1
# [9] = tested on: MRSA BAA-44; assay: MIC assay (broth microdilution, CLSI); conditions: Staphylococcus aureus, read-out: MIC, MRSA BAA-44
# [10] = tested on: MRSA BAA-1707 planktonic cells and biofilms; assay: Calgary Biofilm Device (CBD) assay, MBC/MBEC
# [11] = tested on: S. epidermidis 12228; assay: MIC assay with Tiron or metal(II) cation co-treatment; type: cell-based, Staphylococcus epidermidis; conditions: Staphylococcus epidermidis
# [12] = tested on: Enterococcus faecium (ATCC 700221), VRE; assay: MIC assay (broth microdilution, CLSI); type: cell-based
# [13] = tested on: Staphylococcus epidermidis (ATCC 12228); assay: MIC assay (broth microdilution, CLSI); type: cell-based; conditions: Staphylococcus epidermidis
# [14] = tested on: M. tuberculosis H37Ra (ATCC 25177); assay: Mycobacterium tuberculosis MIC assay; type: cell-based; conditions: Mycobacterium tuberculosis
# Outline: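 Culture diluted to OD600 0.01 and exposed to compounds in 0.5% final DMSO, each compound tested in three rows. Growth read as OD600 absorbance. Data from three independent experiments.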
# [15] = tested on: human red blood cells; assay: Hemolysis assay with red blood cells; conditions: 200 μM
# Outline: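 Washed human red blood cells exposed to compounds added from DMSO stocks, 1 h at 37° C.; supernatant OD read at 405 nm after centrifugation. % hemolysis calculated relative to DMSO (0%) and Triton X (100%) controls, from three independent experiments.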
# [16] = tested on: MRSA-2; assay: MIC assay with Tiron or metal(II) cation co-treatment; type: cell-based, Staphylococcus aureus; conditions: Staphylococcus aureus
# [17] = tested on: S. aureus clinical isolate SA 129; assay: MIC assay (broth microdilution, CLSI); conditions: Staphylococcus aureus, read-out: MIC, SA 129
# [18] = tested on: MRSA-2 (methicillin-resistant Staphylococcus aureus clinical isolate); assay: MIC assay (broth microdilution, CLSI); type: cell-based; conditions: Staphylococcus aureus, MRSA, Table 7; a midpoint of 2-fold range; b lowest concentration tested; read-out: MIC, MRSA-2
# [19] = tested on: MRSA-2 planktonic cells and biofilms; assay: Calgary Biofilm Device (CBD) assay, MBC/MBEC; type: cell-based, Staphylococcus aureus
# [20] = tested on: S. aureus clinical isolate SA 138; assay: MIC assay (broth microdilution, CLSI); conditions: Staphylococcus aureus, read-out: MIC, SA 138
# [21] = tested on: S. aureus clinical isolate SA 147; assay: MIC assay (broth microdilution, CLSI); conditions: Staphylococcus aureus, read-out: MIC, SA 147
# [22] = tested on: S. aureus clinical isolate SA 156; assay: MIC assay (broth microdilution, CLSI); conditions: Staphylococcus aureus, read-out: MIC, SA 156
# [23] = tested on: MRSE (S. epidermidis ATCC 35984) planktonic cells and biofilms; assay: Calgary Biofilm Device (CBD) assay, MBC/MBEC; type: cell-based, Staphylococcus epidermidis; conditions: for MBC: Staphylococcus epidermidis, read-out: MRSE 35984 MBC
# [24] = tested on: methicillin-sensitive S. aureus strains; assay: MIC assay; type: cell-based; conditions: Staphylococcus aureus; read-out: MIC against methicillin-sensitive S. aureus strains
# [25] = Table 2A, read-out: MIC, Staphylococcus epidermidis (ATCC 35984)
# [26] = Table 7, read-out: MIC, MRSE 35984
# [27] = Table 5, c lowest concentration tested
# [28] = Enterococcus faecium, Table 2A, read-out: MIC, Enterococcus faecium (ATCC 700221)
# [29] = Table 7, b lowest concentration tested, read-out: MIC, VRE 700221
# [30] = ATCC12228, Table 2A, read-out: MIC, Staphylococcus epidermidis (ATCC 12228)
# [31] = ATCC12228, Table 7, b lowest concentration tested, read-out: MIC, S. epidermidis 12228
smiles,measurement,setting,value
Oc1c(Br)cc(Br)c2nc3cc(Cl)c(Cl)cc3nc12 [Compound 16],MIC,"[1]; VRE 700221, without Tiron, read-out: MIC",0.39 µM
same,MIC,"[1]; VRE 700221, read-out: MIC with Tiron",0.39 µM
same,MIC,[2]; [25],0.2 to 0.39 µM
same,MIC,"[2]; Table 2B, read-out: MIC, Staphylococcus epidermidis (ATCC 35984)",0.3 µM
same,MIC,[2]; [26],0.3 to 0.59 µM
same,"MIC, MRSE 35984",[2]; Table 7,0.30^a μM
same,MIC,[3],25 µM
same,MBC,"[4]; Table 5, c lowest concentration tested, read-out: VRE MBC",0.39 µM
same,MBC,"[4]; Table 8, c lowest concentration tested, read-out: VRE 700221 MBC",0.39 µM
same,VRE MBEC,[4]; [27],0.39/0.39 μM
same,IC50 at 24 h,[5],> 100 µM
same,IC50,[6],> 100 µM
same,"adverse side effects (changes in weight, seizure, death)",[7],no adverse side effects
same,MIC,[8]; Table 2A,12.5 µM
same,MIC,"[8]; Table 2B, b lowest concentration tested",12.5 µM
same,MIC,[9],50 µM
same,MBC,"[10]; Staphylococcus aureus, read-out: MRSA BAA-1707 MBC",6.25 µM
same,MIC,"[11]; S. epidermidis 12228, without Tiron, read-out: MIC",0.1 µM
same,MIC,"[11]; S. epidermidis 12228, read-out: MIC with Tiron",0.1 µM
same,MIC,[12]; [28],0.39 µM
same,MIC,"[12]; Enterococcus faecium, Table 2B, b lowest concentration tested, read-out: MIC, Enterococcus faecium (ATCC 700221)",0.39 µM
same,MIC,[12]; [29],0.39 µM
same,MIC,[13]; [30],0.05 to 0.1 µM
same,MIC,[13]; [31],0.08 µM
same,MIC,"[14]; 168 h, M. tuberculosis H37Ra, 7 days, read-out: Mtb MIC",6.25 µM
same,MIC,"[14]; Table 7, read-out: MIC, M. tuberculosis H37Ra",6.25 µM
same,% Hemolysis (200 μM),"[15]; human, 1 h, pH 7.2",≤1%
same,MIC,"[16]; MRSA-2, without Tiron, read-out: MIC",12.5 µM
same,MIC,"[16]; MRSA-2, b lowest concentration tested, read-out: MIC with Tiron",0.1 µM
Oc1c(I)cc(I)c2nccnc12 [Compound 26],MIC,[2]; [25],3.13 µM
same,MIC,[2]; [26],3.13 µM
same,MIC,[17],6.25 µM
same,MIC,[3],1.56 µM
same,MIC,[18],3.13 µM
same,IC50 at 24 h,[5],> 100 µM
same,MBC,"[19]; Staphylococcus aureus, MRSA, Table 4, read-out: MBC, MRSA-2",> 2000 µM
same,MBC,"[19]; Staphylococcus aureus, MRSA, Table 8, a/b 2-/4-fold range in independent experiments, read-out: MRSA-2 MBC",> 2000 µM
same,MIC,[20],6.25 µM
same,MIC,[21],6.25 µM
same,MIC,[22],3.13 µM
same,MIC,[8]; Table 11,1.56 µM
same,MBC,[23]; Table 8,750 µM
same,MIC,[9],1.56 µM
same,MIC,[12]; [28],12.5 µM
same,MIC,[12]; [29],12.5 µM
same,MIC,[13]; [30],6.25 µM
same,MIC,[13]; [31],6.25 µM
same,% Hemolysis (200 μM),"[15]; human, 1 h, pH 7.2",≤1%
same,% Hemolysis at 200 μM,"[15]; human, 1 h, pH 7.2",≤1%
"COc1cccc(OC)c1C(=O)N[C@@H]1C(=O)N2[C@@H]1SC(C)(C)[C@@H]2C(=O)O [Methicillin, methicillin, reference compound]",MIC,[17],25 µM
same,MIC,[20],25 µM
same,MIC,[22],50 µM
same,MIC,[24],0.8 to 1.56 µM
"CN[C@H](CC(C)C)C(=O)N[C@H]1C(=O)N[C@@H](CC(N)=O)C(=O)N[C@H]2C(=O)N[C@H]3C(=O)N[C@H](C(=O)N[C@H](C(=O)O)c4cc(O)cc(O)c4-c4cc3ccc4O)[C@H](O)c3ccc(c(Cl)c3)Oc3cc2cc(c3O[C@@H]2O[C@H](CO)[C@@H](O)[C@H](O)[C@H]2O[C@H]2C[C@](C)(N)[C@H](O)[C@H](C)O2)Oc2ccc(cc2Cl)[C@H]1O [Vancomycin, vancomycin, reference compound]",MBC,[4]; read-out: VRE 700221 MBC,> 200 µM
same,VRE MBEC,[4]; [27],150 µM
same,MBC,"[19]; Staphylococcus aureus, MRSA, read-out: MBC, MRSA-2",5.9 µM
same,MBC,"[19]; Staphylococcus aureus, MRSA, read-out: MRSA-2 MBC",3 µM
same,MBC,"[19]; Table 8, a/b 2-/4-fold range in independent experiments, read-out: MRSA-2 MBC",3.0 µM
same,MIC,[20],1.17 µM
same,MIC,[21],1.17 µM
same,MBC,[23],3 µM
same,MRSE MBEC,[23]; Table 5,"> 2,000 μM"
same,MRSA BAA-1707 MBEC,[10]; Table 8,> 2000 µM
same,MIC,"[12]; Enterococcus faecium, read-out: MIC, Enterococcus faecium (ATCC 700221)",> 100 µM
same,MIC,"[12]; Table 2B, b lowest concentration tested, read-out: MIC, Enterococcus faecium (ATCC 700221)",>100 µM
same,MIC,"[12]; read-out: MIC, VRE 700221",> 100 µM
same,MIC,"[13]; ATCC12228, read-out: MIC, S. epidermidis 12228",1.17 µM
same,MIC,"[13]; ATCC12228, read-out: MIC, Staphylococcus epidermidis (ATCC 12228)",1.17 µM
same,% Hemolysis (200 μM),"[15]; 1 h, 37 °C",≤1%
same,% Hemolysis at 200 μM,[15]; red blood cells,<1%
same,% Hemolysis at 200 μM,"[15]; Table 8, human red blood cells",≤1%
